Assay results: US20230257354A1, “NOVEL HETEROCYCLIC COMPOUNDS” (Hoffmann-La Roche Inc., priority 2020, published 2023)
Structures can show the parent of a compound that is named as a salt.

system: Acinetobacter baumannii ATCC17978; test: Antimicrobial susceptibility testing, 90% growth inhibitory concentration (IC90) determination, ATCC17978; assay type: cell-based; settings: Iso-Sensitest broth, OD 600 nm over 16 h, 35±2° C., read-out: ATCC 17978 IC90
Method: Antimicrobial Susceptibility Testing: 90% Growth Inhibitory Concentration (IC90) Determination The in vitro antimicrobial activity of the compounds was determined according to the following procedure: The assay used a 10-points Iso-Sensitest broth medium to measure quantitatively the in vitro activity of the compounds against Acinetobacter baumannii ATCC17978 or ATCC17961. Stock compounds in DMSO were serially twofold diluted (e.g. range from 50 to 0.097 μM final concentration) in 384 wells microtiter plates and inoculated with 49 μl the bacterial suspension in Iso-Sensitest medium to have a final cell concentration of ˜5×10^(5) CFU/ml in a final volume/well of 50 ul/well. Microtiter plates were incubated at 35±2° C. Bacterial cell growth was determined with the measurement of optical density at X=600 nm each 20 minutes over a time course of 16 h. Growth inhibition was calculated during the logarithmic growth of the bacterial cells with determination of the concentration inhibiting 50% (IC50) and 90% (IC90) of the growth. Table 1 provides the 90% growth inhibitory concentrations (IC90) in micromoles per liter of the compounds of present invention obtained against the strain Acinetobacter baumannii ATCC17978.

IC90 | SMILES
200 nM | COc1ccc(-c2cnc(C(=O)Nc3ccc(C(=O)NC4CCN(C(=O)CCOCCN)C4)c(Cl)c3)n2C)c(F)c1F (stereo not drawn) [Example B4, N-[4-[[1-[3-(2-aminoethoxy)propanoyl]pyrrolidin-3-yl]carbamoyl]-3-chloro-phenyl]-5-(2,3-difluoro-4-methoxy-phenyl)-1-methyl-imidazole-2-carboxamide;formic acid]
310 nM | Cn1c(-c2ccc(OCC#N)c(F)c2F)cnc1C(=O)Nc1ccc(C(=O)NCCCN2CCNCC2)c(Cl)c1 [Example A11, N-[3-chloro-4-(3-piperazin-1-ylpropylcarbamoyl)phenyl]-5-[4-(cyanomethoxy)-2,3-difluoro-phenyl]-1-methyl-imidazole-2-carboxamide;2,2,2-trifluoroacetic acid]
830 nM | Cn1c(-c2ccc(OC(F)F)c(F)c2F)cnc1C(=O)Nc1ccc(C(=O)NCCC2CN(CC3CNC3)C2)c(Cl)c1 [Example C1, N-[4-[2-[1-(Azetidin-3-ylmethyl)azetidin-3-yl]ethylcarbamoyl]-3-chloro-phenyl]-5-[4-(difluoromethoxy)-2,3-difluoro-phenyl]-1-methyl-imidazole-2-carboxamide;2,2,2-trifluoroacetic acid]
130 nM | COc1ccc(-c2cnc(C(=O)Nc3ccc(C(=O)NC4CCN(C(=O)[C@@H]5CCNC5)C4)c(Cl)c3)n2C)c(F)c1F (stereo partly drawn) [Example B2, N-[3-chloro-4-[[1-[(3R)-pyrrolidine-3-carbonyl]pyrrolidin-3-yl]carbamoyl]phenyl]-5-(2,3-difluoro-4-methoxy-phenyl)-1-methyl-imidazole-2-carboxamide;formic acid]
160 nM | COc1ccc(-c2cnc(C(=O)Nc3ccc(C(=O)N[C@H]4C[C@@H](C(=O)NCCN)C4)c(Cl)c3)n2C)c(F)c1F [Example B19, N-[4-[[3-(2-aminoethylcarbamoyl)cyclobutyl]carbamoyl]-3-chloro-phenyl]-5-(2,3-difluoro-4-methoxy-phenyl)-1-methyl-imidazole-2-carboxamide;formic acid]
4500 nM | CCc1cc(NC(=O)c2ncc(-c3ccc(OC(C)C)c(F)c3)n2C)ccc1C(=O)NCCOCCN [Example A15, N-[4-[2-(2-aminoethoxy)ethylcarbamoyl]-3-ethyl-phenyl]-5-(3-fluoro-4-isopropoxy-phenyl)-1-methyl-imidazole-2-carboxamide;hydrochloride]
240 nM | CC(C)CCOCCNC(=O)c1ccc(NC(=O)c2ncc(-c3ccc(OCC#N)c(F)c3F)n2C)cc1Cl [Example A27, N-[3-chloro-4-(2-isopentyloxyethylcarbamoyl)phenyl]-5-[4-(cyanomethoxy)-2,3-difluoro-phenyl]-1-methyl-imidazole-2-carboxamide;formic acid]
1100 nM | Cn1c(-c2ccc(OCC#N)c(F)c2F)cnc1C(=O)Nc1ccc(C(=O)NCCNC(=O)[C@H]2C[C@@](C)(O)CN2)c(Cl)c1 [Example B36, N-[3-chloro-4-[2-[[(2R,4R)-4-hydroxy-4-methyl-pyrrolidine-2-carbonyl]amino]ethylcarbamoyl]phenyl]-5-[4-(cyanomethoxy)-2,3-difluoro-phenyl]-1-methyl-imidazole-2-carboxamide;formic acid]
750 nM | COc1ccc(-c2cnc(C(=O)Nc3ccc(C(=O)NCC4CCN(CC5CNC5)CC4)c(Cl)c3)n2C)c(F)c1F [Example C4, N-[4-[[1-(azetidin-3-ylmethyl)-4-piperidyl]methylcarbamoyl]-3-chloro-phenyl]-5-(2,3-difluoro-4-methoxy-phenyl)-1-methyl-imidazole-2-carboxamide;2,2,2-trifluoroacetic acid]
370 nM | CCc1cc(NC(=O)c2ncc(-c3ccc(OC(F)F)c(F)c3F)n2C)ccc1C(=O)NCCCNC(=O)C1CCN(CC2CCNC2)CC1 (stereo not drawn) [Example C2, N-[3-[[4-[[5-[4-(difluoromethoxy)-2,3-difluoro-phenyl]-1-methyl-imidazole-2-carbonyl]amino]-2-ethyl-benzoyl]amino]propyl]-1-(pyrrolidin-3-ylmethyl)piperidine-4-carboxamide;formic acid]
550 nM | COc1ccc(-c2cnc(C(=O)Nc3ccc(C(=O)NCC4CCNCC4)c(Cl)c3)n2C)c(F)c1F [Example A5, N-[3-chloro-4-(4-piperidylmethylcarbamoyl)phenyl]-5-(2,3-difluoro-4-methoxy-phenyl)-1-methyl-imidazole-2-carboxamide;formic acid]
180 nM | CCc1cc(NC(=O)c2ncc(-c3ccc(OCC#N)c(F)c3Cl)n2C)ccc1C(=O)NCCOCCN [Example A22, N-[4-[2-(2-aminoethoxy)ethylcarbamoyl]-3-ethyl-phenyl]-5-[2-chloro-4-(cyanomethoxy)-3-fluoro-phenyl]-1-methyl-imidazole-2-carboxamide;hydrochloride]
610 nM | COc1ccc(-c2cnc(C(=O)Nc3ccc(C(=O)NCCN4CCNCC4)c(Cl)c3)n2C)c(F)c1F [Example A2, N-[3-chloro-4-(2-piperazin-1-ylethylcarbamoyl)phenyl]-5-(2,3-difluoro-4-methoxy-phenyl)-1-methyl-imidazole-2-carboxamide]
130 nM | COc1ccc(-c2cnc(C(=O)Nc3ccc(C(=O)NC4CCN(C(=O)CN(C)C)CC4)c(Cl)c3)n2C)c(F)c1F [Example A25, N-[3-chloro-4-[[1-[2-(dimethylamino)acetyl]-4-piperidyl]carbamoyl]phenyl]-5-(2,3-difluoro-4-methoxy-phenyl)-1-methyl-imidazole-2-carboxamide]
82 nM | COc1ccc(-c2cnc(C(=O)Nc3ccc(C(=O)NC4CCN(C(=O)[C@@H]5C[C@@H](O)CN5)CC4)c(Cl)c3)n2C)c(F)c1F [Example B7, N-[3-chloro-4-[[1-[(2S,4R)-4-hydroxypyrrolidine-2-carbonyl]-4-piperidyl]carbamoyl]phenyl]-5-(2,3-difluoro-4-methoxy-phenyl)-1-methyl-imidazole-2-carboxamide]
240 nM | COc1ccc(-c2cnc(C(=O)Nc3ccc(C(=O)NCC4CC(CN)C4)c(Cl)c3)n2C)c(F)c1F (stereo not drawn) [Example A7, N-[4-[[3-(aminomethyl)cyclobutyl]methylcarbamoyl]-3-chloro-phenyl]-5-(2,3-difluoro-4-methoxy-phenyl)-1-methyl-imidazole-2-carboxamide;formic acid]
57 nM | COc1ccc(-c2cnc(C(=O)Nc3ccc(C(=O)N[C@H]4C[C@@H](NC(=O)C5CCNCC5)C4)c(Cl)c3)n2C)c(F)c1F [Example B39, N-[3-[[2-chloro-4-[[5-(2,3-difluoro-4-methoxy-phenyl)-1-methyl-imidazole-2-carbonyl]amino]benzoyl]amino]cyclobutyl]piperidine-4-carboxamide;formic acid]
79 nM | COc1ccc(-c2cnc(C(=O)Nc3ccc(C(=O)NC4CCN(C(=O)C5CCNCC5)CC4)c(Cl)c3)n2C)c(F)c1F [Example B5, N-[3-chloro-4-[[1-(piperidine-4-carbonyl)-4-piperidyl]carbamoyl]phenyl]-5-(2,3-difluoro-4-methoxy-phenyl)-1-methyl-imidazole-2-carboxamide;formic acid]
320 nM | CCc1cc(NC(=O)c2ncc(-c3ccc(OC)c(F)c3F)n2C)ccc1C(=O)N[C@H]1C[C@@H](C(=O)NCCN)C1 [Example B22, N-[4-[[3-(2-aminoethylcarbamoyl)cyclobutyl]carbamoyl]-3-ethyl-phenyl]-5-(2,3-difluoro-4-methoxy-phenyl)-1-methyl-imidazole-2-carboxamide;2,2,2-trifluoroacetic acid]
220 nM | COc1ccc(-c2cnc(C(=O)Nc3ccc(C(=O)NC4CCN(C(=O)CN(C)C)C4)c(Cl)c3)n2C)c(F)c1F (stereo not drawn) [Example A23, N-[3-Chloro-4-[[1-[2-(dimethylamino)acetyl]pyrrolidin-3-yl]carbamoyl]phenyl]-5-(2,3-difluoro-4-methoxy-phenyl)-1-methyl-imidazole-2-carboxamide]
110 nM | COc1ccc(-c2cnc(C(=O)Nc3ccc(C(=O)NC4CCN(C(=O)C5CCNCC5)C4)c(Cl)c3)n2C)c(F)c1F (stereo not drawn) [Example B1, N-[3-Chloro-4-[[1-(piperidine-4-carbonyl)pyrrolidin-3-yl]carbamoyl]phenyl]-5-(2,3-difluoro-4-methoxy-phenyl)-1-methyl-imidazole-2-carboxamide; formic acid]
250 nM | CCc1cc(NC(=O)c2ncc(-c3ccc(OC)c(F)c3F)n2C)ccc1C(=O)NCCCOCCN(C)C [Example A30, 5-(2,3-difluoro-4-methoxy-phenyl)-N-[4-[3-[2-(dimethylamino)ethoxy]propylcarbamoyl]-3-ethyl-phenyl]-1-methyl-imidazole-2-carboxamide]
740 nM | Cc1cc(NC(=O)c2ncc(-c3ccc(OCC#N)c(F)c3F)n2C)ccc1C(=O)NCCNC(=O)N[C@H]1CNC[C@@H]1O [Example B31, 5-[4-(cyanomethoxy)-2,3-difluoro-phenyl]-N-[4-[2-[[(3S,4S)-4-hydroxypyrrolidin-3-yl]carbamoylamino]ethylcarbamoyl]-3-methyl-phenyl]-1-methyl-imidazole-2-carboxamide;formic acid]
350 nM | Cn1c(-c2ccc(OCC#N)c(F)c2F)cnc1C(=O)Nc1ccc(C(=O)NCCNC(=O)C2(O)CCNCC2)c(Cl)c1 [Example B16, N-[2-[[2-chloro-4-[[5-[4-(cyanomethoxy)-2,3-difluoro-phenyl]-1-methyl-imidazole-2-carbonyl]amino]benzoyl]amino]ethyl]-4-hydroxy-piperidine-4-carboxamide;2,2,2-trifluoroacetic acid]
